From US6475993B2 (Universite Laval, priority 1998, dated 2002)

Assays:
mdx mice = assay: Toxicity signs in mdx mice treated with gentamicin; assay type: in vivo
Description: Further, any mean by which gentamicin or gentamicin-like or derived molecules can be driven more directly to the site of action is within the scope of this invention.

CFTR protein = conditions: gentamicin 200 mg/mL (so in the source), incubation 18 to 24 hours; Howard et al. 1996; cited from earlier work
dystrophin = assay: Dystrophin immunohistochemistry in skeletal muscle and heart of mdx mice treated with gentamicin; assay type: in vivo; conditions: for Dystrophin staining intensity: 7 days
Experimental: All mice were then sacrificed, their skeletal muscle and their heart were frozen and cryostat sectioned. The presence of dystrophin in these sections was investigated by immunohistochemistry. […] In the untreated mdx muscles, dystrophin immunostaining was observed only in a few revertant fibers (Hoffman et al. 1990). […] The dystrophin staining was less intense in the muscles of mice treated with 1 mg/kg. […] The duration of treatment may vary.

With gentamicin as the substance, how does the Toxicity signs (mdx mice) read?
The Toxicity signs was “No toxicity signs appeared”.

What about the “Suppression of premature stop mutation in CFTR gene (full-length CFTR protein)” value (CFTR protein) of the same substance?
Its value is “permitted to suppress the premature stop mutation”.

And the “Success of daily treatments of other route or duration” value (dystrophin; Sub-cutaneous or intra-muscular daily treatments of 7 to 14 days or longer)?
The value was “equivalently successful”.

And the Dystrophin staining intensity (dystrophin; mdx mice, I.M. 5 mg/day gentamicin, some muscles)?
The Dystrophin staining intensity was “as intense as that observed in the normal mouse muscles”.

What about the “Presence of dystrophin by immunohistochemistry” value (dystrophin; mdx mice, I.M. gentamicin 1 mg/day or 5 mg/day during 7 days, skeletal muscle and heart cryostat sections) of the same substance?
Its value is “detected by immunohistochemistry on all muscle fibers and all heart muscle cells”.

What about the Dystrophin staining intensity (dystrophin; mdx mice, I.M. gentamicin, printed 1 mg/kg) of the same substance?
The Dystrophin staining intensity was “less intense”.

And the “Suppression of premature stop codon in vivo” value (dystrophin; mdx mice, dose of 8 to 40 mg per Kg of body weight per day)?
Its value is “successfully suppressed the premature stop codon”.
